Test systems include A549; BT-549; HCC 2998; HCT-116; HCT-15; Hs-578T; K562; KM12; MDA-MB-435; NCI-H226; OVCAR-5; RPMI-8226; RXF 393; SF-539; SK-MEL-2; SK-MEL-5; SNB-19; SNB-75; SW-620; T47D.
Holding throughout (experiment): NCI-60 cell line screen, 48 h

From ChEMBL document CHEMBL1201862, “PubChem BioAssay data set” (2004) come the findings set out here.

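Dose response: 5 concentrations. Exposure: 48 h. Format: 96-well plates. Endpoint: linear interpolation; highest concentration if not reached. GI50 is the concentration that inhibits growth by half.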 Active and inactive are the calls of the source. Cut-off read from the data, not from the text of the source: active = GI50 up to about 1.1 µM and inactive = higher.

For the molecule `O=C1c2ccccc2C(=O)c2c(/C=C\N3CCCCC3)ccnc21`, the GI50 is 2.12 µM (inactive) in the test with A549; 0.889 µM (active) with BT-549; 2.72 µM (inactive) in the test with HCC 2998; 1.06 µM (active) in the test on HCT-116; 0.582 µM in the test with HCT-15; 1.23 µM (inactive) in the test on Hs-578T. The GI50 was 0.551 µM (active) in the test on K562; 3.97 µM (inactive) with KM12; 0.327 µM (active) with MDA-MB-435; 2.7 µM (inactive) with NCI-H226; 5.38 µM (inactive) in the test on OVCAR-5; 2.29 µM (inactive) with RPMI-8226. The GI50 in the test with RXF 393 was 8.53 µM (inactive); in the test with SF-539, 3.12 µM (inactive); in the test with SK-MEL-2 it was 3.72 µM (inactive); in the test on SK-MEL-5, 0.42 µM (active); in the test with SNB-19, 4.91 µM (inactive); in the test with SNB-75, 2.01 µM (inactive). For the same molecule, the values for the GI50 with SW-620 and in the test with T47D were 0.839 µM (active) and 2.97 µM (inactive), respectively.

For `COc1ccc(Br)c(/C=N\c2cccc3cc(OC)c(OC)cc23)c1`, the GI50 in the test on A549 was > 91.2 µM (inactive); in the test with BT-549, 8.3 µM (inactive); in the test on HCC 2998 it was 28.4 µM (inactive); in the test on HCT-116, 4.35 µM (inactive); in the test on HCT-15, 2.47 µM; with Hs-578T, 5.21 µM (inactive). The GI50 in the test on K562 was 3.52 µM (inactive); in the test on KM12, 21.1 µM (inactive); in the test on MDA-MB-435, 2.8 µM (inactive); with NCI-H226, 39 µM (inactive); in the test on OVCAR-5 it was 72.1 µM (inactive); in the test on RPMI-8226 it was 3.44 µM (inactive). For the same molecule, the GI50 in the test on RXF 393 is 39.1 µM (inactive); with SF-539 it was 2.64 µM (inactive); with SK-MEL-2, 42.3 µM (inactive); with SK-MEL-5 it was 17.5 µM (inactive); with SNB-19 it was 13.2 µM (inactive); in the test with SNB-75 it was 38.8 µM (inactive). Besides, the GI50 with SW-620 is 7.08 µM (inactive); in the test on T47D, 58.5 µM (inactive).

For the molecule `NCC(=O)Nc1ccc(Cl)cc1C(=O)c1ccc[nH]1`, the GI50 in the test on A549 is 63.1 µM (inactive); in the test with BT-549, 70.3 µM (inactive); in the test with HCC 2998, 31.8 µM (inactive); with HCT-116, 7.64 µM (inactive); with HCT-15, 38.5 µM; with Hs-578T, > 67.5 µM (inactive). Moreover, the GI50 with K562 is 10.5 µM (inactive); in the test with KM12 it was 34 µM (inactive); in the test on MDA-MB-435, 45.2 µM (inactive); with NCI-H226, 46.3 µM (inactive); in the test with OVCAR-5, 55.6 µM (inactive); with RPMI-8226 it was 5.57 µM (inactive). Moreover, the GI50 in the test with RXF 393 was > 82.2 µM (inactive); in the test on SF-539, > 32.8 µM (inactive); with SK-MEL-2, 61.1 µM (inactive); in the test on SK-MEL-5 it was 49 µM (inactive); in the test on SNB-19, > 100 µM (inactive); in the test on SNB-75, 38.5 µM (inactive). Moreover, the results for the GI50 in the test with SW-620 and with T47D were 13.6 µM (inactive) and 54.1 µM (inactive), respectively.

For `O=C(CCc1cc(O)ccc1O)OCCc1ccccc1`, the GI50 with A549 was > 100 µM (inactive); in the test with BT-549, 11.5 µM (inactive); in the test with HCC 2998 it was 47.2 µM (inactive); in the test on HCT-116, 13 µM (inactive); in the test on HCT-15, 11.1 µM; in the test with Hs-578T, 16.1 µM (inactive). Further, the GI50 in the test with K562 is 1.4 µM (inactive); with KM12 it was 8.53 µM (inactive); in the test with MDA-MB-435 it was 10.4 µM (inactive); in the test with NCI-H226 it was > 28.3 µM (inactive); with OVCAR-5 it was 27.4 µM (inactive); in the test on RPMI-8226 it was 0.875 µM (active). Moreover, the GI50 in the test with RXF 393 was 11.7 µM (inactive); with SF-539 it was 3.83 µM (inactive); in the test with SK-MEL-2, 18.7 µM (inactive); in the test with SK-MEL-5, 22.2 µM (inactive); in the test with SNB-19, 48.5 µM (inactive); with SNB-75, > 64.1 µM (inactive). Besides, the GI50 with SW-620 was 16.3 µM (inactive); with T47D it was 16.4 µM (inactive).
